In PMC9292024 (The New Phytologist, 2021):

What was measured:
SbMAX1c = target: T1, SbMAX1c (Sorghum bicolor, UniProt A0A809Q895); experiment: yeast microsome conversion, LC-MS/MS; assay type: biochemical; settings: 33 μM rac-CL, 500 μM NADPH, 28°C, 1 h
T1 sequence (A0A809Q895 1-545): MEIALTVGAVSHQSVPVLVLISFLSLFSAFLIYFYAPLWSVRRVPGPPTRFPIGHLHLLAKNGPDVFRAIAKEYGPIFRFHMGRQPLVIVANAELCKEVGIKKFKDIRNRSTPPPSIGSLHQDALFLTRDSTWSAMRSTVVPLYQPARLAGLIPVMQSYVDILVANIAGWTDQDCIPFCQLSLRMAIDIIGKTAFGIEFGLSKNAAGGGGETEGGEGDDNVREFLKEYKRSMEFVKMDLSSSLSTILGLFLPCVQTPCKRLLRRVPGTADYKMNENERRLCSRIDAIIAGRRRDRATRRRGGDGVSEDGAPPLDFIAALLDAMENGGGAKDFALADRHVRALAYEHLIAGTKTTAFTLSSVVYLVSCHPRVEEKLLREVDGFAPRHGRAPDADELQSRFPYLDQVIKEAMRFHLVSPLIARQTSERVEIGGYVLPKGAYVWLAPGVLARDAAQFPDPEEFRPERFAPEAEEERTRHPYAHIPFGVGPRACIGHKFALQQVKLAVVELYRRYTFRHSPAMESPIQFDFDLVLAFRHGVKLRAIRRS

SbMAX1d = target: T2, SbMAX1d (Sorghum bicolor, UniProt A0A809QVY0); experiment: yeast microsome conversion, LC-MS/MS; assay type: biochemical; settings: 33 μM rac-CL, 500 μM NADPH, 28°C, 1 h
T2 sequence (A0A809QVY0 1-539): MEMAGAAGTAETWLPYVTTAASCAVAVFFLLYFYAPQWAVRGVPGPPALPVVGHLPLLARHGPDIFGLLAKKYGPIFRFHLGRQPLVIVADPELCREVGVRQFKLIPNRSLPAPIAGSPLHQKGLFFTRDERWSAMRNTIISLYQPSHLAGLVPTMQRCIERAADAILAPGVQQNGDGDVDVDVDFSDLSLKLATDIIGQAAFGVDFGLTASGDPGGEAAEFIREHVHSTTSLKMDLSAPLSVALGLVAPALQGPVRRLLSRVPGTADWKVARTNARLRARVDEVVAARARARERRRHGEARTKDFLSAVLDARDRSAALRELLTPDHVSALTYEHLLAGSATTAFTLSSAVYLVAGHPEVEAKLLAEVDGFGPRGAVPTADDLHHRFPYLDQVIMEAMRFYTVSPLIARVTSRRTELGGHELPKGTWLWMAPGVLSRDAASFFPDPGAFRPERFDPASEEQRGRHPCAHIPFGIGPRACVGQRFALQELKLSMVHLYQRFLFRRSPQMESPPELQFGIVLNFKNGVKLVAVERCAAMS

In the case of `CC1=CC(O/C=C(C)\C=C\C2=C(C)CCCC2(C)C)OC1=O` (racemic) [rac‐CL], the “yeast microsome conversion, LC-MS/MS” value (SbMAX1c) is reported as “expressing SbMAX1b, SbMAX1c, or SbMAX1d after incubation with rac‐CL” and the “yeast microsome conversion, LC-MS/MS” value (SbMAX1d) is reported as “expressing SbMAX1b, SbMAX1c, or SbMAX1d after incubation with rac‐CL”.
